From PMC10920384 (Heliyon, 2024)
Like-named read-outs stand apart in the source and are kept apart here. Marks after values point to notes of the source that are not given here.

How the values were obtained:
[1] = test system: α-glucosidase from Saccharomyces cerevisiae; experiment: α-Glucosidase inhibitory assay; assay type: biochemical; details: mean ± SD, N = 3
[2] = molecular target: dipeptidyl peptidase-IV (DPP-IV) from porcine kidney (Sus scrofa, UniProt P22411); experiment: Dipeptidyl peptidase-IV; assay type: biochemical; details: for inhibition at 50 µg/mL: read-out: % Inhibition at 50 μg/mL (DPP-IV)
Sequence of dipeptidyl peptidase-IV (DPP-IV) from porcine kidney (P22411 whole entry): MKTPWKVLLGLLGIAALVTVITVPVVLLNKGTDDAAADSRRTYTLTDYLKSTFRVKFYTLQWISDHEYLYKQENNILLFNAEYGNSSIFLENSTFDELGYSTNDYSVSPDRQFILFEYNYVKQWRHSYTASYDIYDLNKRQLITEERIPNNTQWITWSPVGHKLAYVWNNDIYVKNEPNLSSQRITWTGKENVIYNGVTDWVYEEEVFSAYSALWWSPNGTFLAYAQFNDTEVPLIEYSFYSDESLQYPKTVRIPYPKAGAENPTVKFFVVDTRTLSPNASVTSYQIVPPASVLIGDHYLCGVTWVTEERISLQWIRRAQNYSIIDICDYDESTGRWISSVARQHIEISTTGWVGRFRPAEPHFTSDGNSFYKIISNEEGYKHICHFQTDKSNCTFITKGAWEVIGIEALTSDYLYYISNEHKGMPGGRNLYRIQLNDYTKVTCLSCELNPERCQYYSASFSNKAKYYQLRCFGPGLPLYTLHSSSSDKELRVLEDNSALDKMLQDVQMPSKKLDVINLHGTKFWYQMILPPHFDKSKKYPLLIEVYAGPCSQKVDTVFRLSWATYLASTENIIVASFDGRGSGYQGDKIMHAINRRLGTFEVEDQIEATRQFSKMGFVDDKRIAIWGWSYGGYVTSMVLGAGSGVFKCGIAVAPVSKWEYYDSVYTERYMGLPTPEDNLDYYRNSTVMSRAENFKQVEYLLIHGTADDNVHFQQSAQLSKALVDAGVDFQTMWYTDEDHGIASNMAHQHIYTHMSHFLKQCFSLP

Row | Structure (SMILES) | % Inhibition at 10 μg/mL (α-glucosidase) [1] [%] | IC50 (α-glucosidase inhibition) [1] [µg/mL] | % Inhibition at 50 μg/mL (DPP-IV) ([2]; mean ± SD, N = 3) | IC50 (DPP-IV inhibition) ([2]; mean ± SD, N = 3) [µg/mL] | IC50 [2] [µM] | inhibition at 50 µg/mL [2] [%] | IC50 ([2]; read-out: IC50 (DPP-IV inhibition), mean ± SD, N = 3) [µM]
1 | CC[C@H](C)[C@H](N)C(=O)N1CCC[C@H]1C(=O)N[C@H](C(=O)O)[C@@H](C)CC [Diprotin A, diprotin A, reference compound] | – | – | – | – | – | 77.6 ± 1.18 | –
2 | O=c1cc(-c2ccccc2)oc2cc(O)cc(O)c12 [Compound 5, chrysin] | 27.31 ± 1.04 | >10 | – | – | > 197 | 41.2 ± 1.03 | –
3 | CC(C)=CCCC(C)=CCCC(C)=CCc1c[nH]c2ccccc12 [Compound 9, 3-Farnesyl indole] | 18.40 ± 1.39 | >10 | – | – | > 156 | 27.1 ± 0.73 | –

Continued, values first:

Row | % Inhibition at 10 μg/mL (α-glucosidase) [1] [%] | IC50 (α-glucosidase inhibition) [1] [µg/mL] | % Inhibition at 50 μg/mL (DPP-IV) ([2]; mean ± SD, N = 3) | IC50 (DPP-IV inhibition) ([2]; mean ± SD, N = 3) [µg/mL] | IC50 [2] [µM] | inhibition at 50 µg/mL [2] [%] | IC50 ([2]; read-out: IC50 (DPP-IV inhibition), mean ± SD, N = 3) [µM] | Structure (SMILES)
4 | 28.13 ± 1.46 | >10 | 24.54 ± 2.38% | >50 | – | – | – | COc1cc2c(c(O)c1OC)C(=O)C[C@@H](c1ccccc1)O2 [Compound 10, onysilin]
5 | 34.57 ± 1.43 | >10 | – | – | > 166 | 27.8 ± 2.96 | – | COc1cc(OC)c2c(c1O)OC(c1ccccc1)CC2=O (stereo not shown) [Compound 7, 8-hydroxy-5,7-dimethoxyflavanone]
6 | 38.04 ± 1.10 | >10 | 97.37 ± 1.01 ^a % | – | – | – | 28.7 | COc1cc(OC)c(C(=O)/C=C/c2ccccc2)c(O)c1O [Compound 4, 2′,3′-dihydroxy-4′,6′-dimethoxychalcone]
7 | 37.30 ± 1.03 | >10 | – | – | > 195 | 30.4 ± 1.9 | – | O=C1C[C@@H](c2ccccc2)Oc2cc(O)cc(O)c21 [Compound 8, pinocembrin]
